Drawing on ChEMBL document CHEMBL1137878, “Synthesis and evaluation of novel oxazoline MMP inhibitors” (Bioorg Med Chem Lett, 2004), this text covers Ki for 34 molecules.

In assay [1] the target is T1, Matrix metalloproteinase-9 (Homo sapiens, UniProt P14780). The experiment in a line: Inhibitory activity against matrix metalloprotease-9.
Assay [2] has as its target T2, 72 kDa type IV collagenase (Homo sapiens, UniProt P08253). Description: Inhibitory activity against matrix metalloprotease-2; NA denotes no activity upto solubility limit.
The target in assay [3] is T3, Macrophage metalloelastase (Homo sapiens, UniProt P39900). The experiment in a line: Inhibitory activity against matrix metalloprotease-12; NA denotes no activity upto solubility limit.
In assay [4] the target is T4, Interstitial collagenase (Homo sapiens, UniProt P03956).
T4 sequence (P03956 whole entry): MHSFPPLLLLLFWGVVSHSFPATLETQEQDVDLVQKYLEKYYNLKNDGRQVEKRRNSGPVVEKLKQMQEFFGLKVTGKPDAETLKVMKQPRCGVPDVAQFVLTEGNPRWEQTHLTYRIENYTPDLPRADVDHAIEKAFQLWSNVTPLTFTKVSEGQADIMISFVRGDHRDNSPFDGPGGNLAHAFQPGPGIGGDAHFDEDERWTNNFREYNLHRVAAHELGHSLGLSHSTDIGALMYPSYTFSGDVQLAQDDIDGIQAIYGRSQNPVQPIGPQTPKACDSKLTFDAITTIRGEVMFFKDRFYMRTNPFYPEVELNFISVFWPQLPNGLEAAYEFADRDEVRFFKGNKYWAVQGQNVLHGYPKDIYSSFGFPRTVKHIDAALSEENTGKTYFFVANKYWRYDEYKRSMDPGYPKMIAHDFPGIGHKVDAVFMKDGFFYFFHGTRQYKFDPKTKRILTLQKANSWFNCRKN
The experiment in a line: Inhibitory activity against matrix metalloprotease-1.

For assay [5], the target named is T3, Macrophage metalloelastase. Description: Inhibitory activity against matrix metalloprotease-12.
Assay [6] concerns the target T2, 72 kDa type IV collagenase. The experiment in a line: Inhibitory activity against matrix metalloprotease-2.
The target of assay [7] is T4, Interstitial collagenase. The experiment in a line: Inhibitory activity against matrix metalloprotease-1; NA denotes no activity upto solubility limit.
In assay [8] the target is T1, Matrix metalloproteinase-9. The experiment in a line: Inhibitory activity against matrix metalloprotease-9; NA denotes no activity upto solubility limit.
Assay [9] deals with T4, Interstitial collagenase. Description: Inhibitory activity against matrix metalloprotease-1; F denotes no activity was observed upto the concentration that fluorescence could be compensated for.
Assay [10] deals with T1, Matrix metalloproteinase-9. The experiment in a line: Inhibitory activity against matrix metalloprotease-9; F denotes no activity was observed upto the concentration that fluorescence could be compensated for.

Structures are written as SMILES.

T3 sequence (P39900 whole entry): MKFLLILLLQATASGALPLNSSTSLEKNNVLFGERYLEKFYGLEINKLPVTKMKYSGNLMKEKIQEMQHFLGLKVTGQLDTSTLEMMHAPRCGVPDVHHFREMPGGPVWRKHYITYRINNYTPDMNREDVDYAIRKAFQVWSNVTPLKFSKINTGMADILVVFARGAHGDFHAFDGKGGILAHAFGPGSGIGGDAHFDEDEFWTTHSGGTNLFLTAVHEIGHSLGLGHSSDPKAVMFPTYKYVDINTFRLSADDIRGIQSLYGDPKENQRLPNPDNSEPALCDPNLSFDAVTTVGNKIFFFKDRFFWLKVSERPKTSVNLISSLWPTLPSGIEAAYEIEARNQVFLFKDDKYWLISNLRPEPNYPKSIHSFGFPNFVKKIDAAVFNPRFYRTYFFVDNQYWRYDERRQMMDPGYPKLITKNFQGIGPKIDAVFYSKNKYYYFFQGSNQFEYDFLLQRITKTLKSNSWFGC
T2 sequence (P08253 whole entry): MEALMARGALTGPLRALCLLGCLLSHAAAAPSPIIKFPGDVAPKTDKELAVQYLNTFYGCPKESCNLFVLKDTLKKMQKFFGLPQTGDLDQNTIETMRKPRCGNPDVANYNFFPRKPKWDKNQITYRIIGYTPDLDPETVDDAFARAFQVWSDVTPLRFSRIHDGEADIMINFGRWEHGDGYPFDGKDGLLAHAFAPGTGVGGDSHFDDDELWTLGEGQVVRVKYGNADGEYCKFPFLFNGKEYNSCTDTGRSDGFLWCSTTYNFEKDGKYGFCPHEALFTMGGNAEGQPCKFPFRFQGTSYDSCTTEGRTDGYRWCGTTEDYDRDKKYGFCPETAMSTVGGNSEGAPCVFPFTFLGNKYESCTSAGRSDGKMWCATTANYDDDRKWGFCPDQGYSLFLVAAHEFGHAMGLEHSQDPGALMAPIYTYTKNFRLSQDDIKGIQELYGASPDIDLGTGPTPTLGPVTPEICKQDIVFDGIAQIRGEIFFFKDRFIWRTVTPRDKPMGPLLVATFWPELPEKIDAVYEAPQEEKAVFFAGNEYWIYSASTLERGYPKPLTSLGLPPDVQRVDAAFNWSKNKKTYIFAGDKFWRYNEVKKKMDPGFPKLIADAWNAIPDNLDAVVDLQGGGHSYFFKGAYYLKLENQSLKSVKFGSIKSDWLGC
T1 sequence (P14780 whole entry): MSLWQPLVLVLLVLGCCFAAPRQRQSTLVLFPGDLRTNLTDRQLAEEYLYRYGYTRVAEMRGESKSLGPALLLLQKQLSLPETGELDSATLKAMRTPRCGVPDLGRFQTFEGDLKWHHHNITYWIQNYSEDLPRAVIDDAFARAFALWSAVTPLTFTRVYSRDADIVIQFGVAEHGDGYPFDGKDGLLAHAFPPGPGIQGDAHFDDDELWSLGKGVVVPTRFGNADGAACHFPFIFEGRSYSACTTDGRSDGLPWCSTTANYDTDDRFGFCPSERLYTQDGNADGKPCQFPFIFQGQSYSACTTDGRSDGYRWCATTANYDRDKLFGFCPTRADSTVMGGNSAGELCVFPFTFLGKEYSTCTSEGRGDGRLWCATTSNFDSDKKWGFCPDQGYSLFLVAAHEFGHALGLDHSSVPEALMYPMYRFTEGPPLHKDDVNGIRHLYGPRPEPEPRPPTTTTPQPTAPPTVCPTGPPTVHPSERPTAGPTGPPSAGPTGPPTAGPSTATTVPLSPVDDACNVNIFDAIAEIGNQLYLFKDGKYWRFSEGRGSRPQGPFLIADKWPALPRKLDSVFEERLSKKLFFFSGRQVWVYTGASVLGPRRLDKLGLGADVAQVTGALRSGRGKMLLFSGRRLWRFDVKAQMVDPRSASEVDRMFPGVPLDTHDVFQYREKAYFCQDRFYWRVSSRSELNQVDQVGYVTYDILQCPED

`C=C[C@@H]1OC(c2ccc(Br)cc2)=N[C@H]1Sc1ccccc1` came in with a Ki in assay [1] of 94 µM.

As for `C=C[C@@H]1OC(c2ccc(-c3ccccc3)cc2)=N[C@H]1SC(C)=O`, the Ki result in assay [2] is “No Activity”; in assay [3], “No Activity”; at Interstitial collagenase [4] it was greater than 400 µM; in assay [1] it was 81 µM.

With `C=C[C@@H]1OC(c2ccc(C)cc2)=N[C@H]1S`, the Ki at Interstitial collagenase [4] was greater than 100 µM; in [5], greater than 300 µM; in assay [1], greater than 100 µM; in assay [6], 88 µM.

Regarding `C=C[C@@H]1OC(c2ccc(F)cc2)=N[C@H]1CO`, the Ki entry (in assay [2]; in assay [3]; at Interstitial collagenase [7]; in assay [8]) was “No Activity” in each case.

On to `C=C[C@@H]1OC(c2ccc(Br)cc2)=N[C@H]1CO`, for which the Ki entry at Interstitial collagenase [7] is “No Activity”; in assay [5], greater than 300 µM; in [1], 9 µM; in assay [6] it was greater than 600 µM.

Regarding `C=C[C@@H]1OC(Cc2ccccc2)=N[C@H]1CO`, the Ki result in [2] was “No Activity”; in assay [3], “No Activity”; at Interstitial collagenase [4], greater than 500 µM; in assay [1] it was 6 µM.

Take `C=C[C@@H]1OC(c2ccc(C)cc2)=N[C@H]1SC(C)=O`: the Ki entry is “No Activity” in assay [2], “No Activity” in [3], “No Activity” on Interstitial collagenase [7] and greater than 100 µM in assay [1].

For the molecule `C=C[C@@H]1OC(/C=C/c2ccc(Br)cc2)=N[C@H]1CO`, the Ki result in assay [2] was “No Activity”; in assay [3], “No Activity”; at Interstitial collagenase [4], greater than 300 µM; in assay [1], 22 µM.

For the molecule `C=C[C@@H]1OC(C#Cc2ccccc2)=N[C@H]1CO`, the Ki result in [2] is “No Activity”; in [3], “No Activity”; on Interstitial collagenase [4] it was 46 µM; in [1], 65 µM.

As for `C=C[C@@H]1OC(CCCCC)=N[C@H]1CO`, the Ki in assay [1] is greater than 2000 µM.

On to `C=C[C@@H]1OC(c2ccc(Br)cc2)=N[C@H]1SC(C)=O`, for which the Ki result is “No Activity” in [2], “No Activity” in assay [3], greater than 200 µM at Interstitial collagenase [4] and 88 µM in [1].

Regarding `C=C[C@@H]1OC(CCc2ccccc2)=N[C@H]1CO`, the Ki entry (in [2]; on Interstitial collagenase [7]; in [8]) was “No Activity” in each case.

Regarding `C=C[C@@H]1OC(c2ccc(-c3ccccc3)cc2)=N[C@H]1CO`, the results for the Ki result (at Interstitial collagenase [7]; in assay [1]) were “No Activity” and 24 µM, respectively.

`C=C[C@@H]1OC(/C=C/c2ccccc2)=N[C@H]1S`: the Ki entry in assay [2] was “No Activity”; in [3] it was “No Activity”; at Interstitial collagenase [4] it was 92 µM; in assay [1] it was 94 µM.

For the molecule `C=C[C@@H]1OC(c2ccc(-c3ccccc3)cc2)=N[C@H]1Sc1ccccc1`, the Ki entry was “No Activity” in assay [2], “No Activity” at Interstitial collagenase [7] and greater than 100 µM in assay [1].

Consider `C=C[C@@H]1OC(/C=C\C=C\c2ccccc2)=N[C@H]1CO`, for which the Ki at Interstitial collagenase [4] was determined as 32 µM; in assay [5], 49 µM; in [1], 8 µM; in assay [6] it was 153 µM.

`C=C[C@@H]1OC(C2CCCCC2)=N[C@H]1CO`: the Ki result (in [2]; in assay [3]; at Interstitial collagenase [7]; in [8]) was “No Activity” in each case.

In the case of `C=C[C@@H]1OC(/C=C/c2ccccc2)=N[C@H]1Sc1ccccc1`, the Ki entry in assay [2] is “No Activity”; in assay [3] it was “No Activity”; on Interstitial collagenase [4] it was greater than 100 µM; in assay [1] it was greater than 100 µM.

For `C=C[C@@H]1OC(c2ccc(Br)cc2)=N[C@H]1S`, the Ki on Interstitial collagenase [4] was greater than 200 µM; in assay [1], greater than 100 µM.

For `C=C[C@@H]1OC(/C=C/c2ccc(-c3ccccc3)cc2)=N[C@H]1CO`, the Ki entry in assay [2], in assay [3] and in [8] was “No Activity” each time.

The molecule `C=C[C@@H]1OC(/C=C/c2ccccc2)=N[C@H]1CO` returned a Ki in assay [1] of 40 µM.

Regarding `C=C[C@@H]1OC(c2ccc(C)cc2)=N[C@H]1Sc1ccccc1`, the Ki entry is “No Activity” in assay [2], “No Activity” in [3] and 64 µM on Interstitial collagenase [4].

`C=C[C@@H]1OC(CCCCCCC)=N[C@H]1CO` gave a Ki in [1] greater than 2000 µM.

Turning to `C=C[C@@H]1OC(c2ccc(C)cc2)=N[C@H]1CO`, the Ki result in [2] is “No Activity”; in assay [3] it was “No Activity”; at Interstitial collagenase [7], “No Activity”; in assay [1], 68 µM.

Take `C=C[C@@H]1OC(c2ccc(Cl)cc2)=N[C@H]1SC(C)=O`: the Ki result in assay [2] is “No Activity”; at Interstitial collagenase [4], greater than 100 µM.

Take `C=CC1=N[C@@H](CO)[C@H](C=C)O1`: the Ki entry (in assay [2]; in [3]; on Interstitial collagenase [7]; in assay [8]) was “No Activity” each time.

With `C=C[C@@H]1OC(c2ccc(Cl)cc2)=N[C@H]1Sc1ccccc1`, the Ki result in [3] is “No Activity”; at Interstitial collagenase [7], “No Activity”; in assay [1], greater than 200 µM.

`C=C[C@@H]1OC(c2ccc(Cl)cc2)=N[C@H]1CO`: the Ki entry in assay [3] was “No Activity”; on Interstitial collagenase [4], greater than 300 µM; in assay [1], 33 µM.

Consider `C=C[C@@H]1OC(c2ccc(OC)cc2)=N[C@H]1CO`, for which the Ki result (in assay [2]; in assay [3]; at Interstitial collagenase [7]; in assay [8]) was “No Activity” each time.

As to `C=C[C@@H]1OC(/C=C/c2ccccc2)=N[C@H]1SC(C)=O`, the Ki entry at Interstitial collagenase [7] is “No Activity”; in assay [5], greater than 300 µM; in assay [1], greater than 100 µM.

For the molecule `C=C[C@@H]1OC(c2ccc([N+](=O)[O-])cc2)=N[C@H]1CO`, the Ki entry was “Fluorescence interfered with assay” on Interstitial collagenase [9], “Fluorescence interfered with assay” in assay [10] and greater than 100 µM in [5].

For `C=C[C@@H]1OC(c2ccccc2)=N[C@H]1CO`, the Ki result at Interstitial collagenase [7] is “No Activity”; in assay [5], greater than 2000 µM; in [1] it was greater than 4000 µM; in [6], greater than 2000 µM.

Molecule `C=C[C@@H]1OC(c2ccc(Oc3ccccc3)cc2)=N[C@H]1CO` yielded a Ki in assay [1] of 32 µM.

Take `C=C[C@@H]1OC(c2ccc(Cl)cc2)=N[C@H]1S`: the Ki entry in assay [2] is “No Activity”; in [3] it was “No Activity”; on Interstitial collagenase [4] it was greater than 100 µM; in assay [1], greater than 100 µM.

The Ki is the equilibrium dissociation constant of an inhibitor or competing ligand from its target. Read a low Ki as higher affinity.
